The text below walks through data of patent publication US8946426B2, “Substituted bicyclic heterocyclic compounds as gamma secretase modulators” (Janssen Pharmaceuticals, Inc., priority 2009, dated 2015).

pIC50: −log10 of the molar value.

Holding throughout (format): cell-based
The subject of test [1] is Aβ42. Kind of test: Method 1: Aβ42 sandwich ELISA in supernatant of SKNBE2 cells carrying APP 695-wild type (Tables 7a, 7b). An outline of the steps:
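SKNBE2 cells expressing wild-type APP695 were exposed to compound for 18 hours. Secreted Aβ42 was quantified by sandwich ELISA with C-terminal-selective capture, biotinylated 3D6 detection and TMB read-out at 450 nm. IC50 came from 4-parameter fits of % inhibition or % of untreated control; WST-1 monitored toxicity.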
(In general: ELISA stands for enzyme-linked immunosorbent assay.)

Test [2] concerns Aβtotal. In words: Method 1: Aβtotal sandwich ELISA in supernatant of SKNBE2 cells carrying APP 695-wild type (Tables 7a, 7b). An outline of the steps:
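SKNBE2 cells expressing wild-type APP695 were exposed to compound for 18 Hours in Ultraculture with 1% glutamine. Aβtotal in the supernatant was read by 6E10-capture/biotinylated 4G8 sandwich ELISA with a fluorogenic peroxidase read-out, and WST-1 checked toxicity. IC50 came from a 4-parameter fit of percent inhibition or percent of control versus concentration.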

Test [3] concerns Aβ42. In words: Method 2: Aβ42 Alphalisa in supernatant of SKNBE2 cells carrying APP 695-wild type (Table 7c). As to conditions: Method 2, Alphalisa, overnight incubation. The protocol:
(§1) Screening was carried out using SKNBE2 cells carrying the APP 695-wild type, grown in Dulbecco's Modified Eagle's Medium/Nutrient mixture F-12 (DMEM/NUT-mix F-12) (HAM) provided by Invitrogen (cat no. 10371-029) containing 5% Serum/Fe supplemented with 1% non-essential amino acids, 1-glutamine 2 mM, Hepes 15 mM, penicillin 50 U/ml (units/ml) en streptomycin 50 μg/ml. Cells were grown to near confluency.
(§2) The screening was performed using a modification of the assay as described in Citron et al (1997) Nature Medicine 3: 67. Briefly, cells were plated in a 384-well plate at 10^4 cells/well in Ultraculture (Lonza, BE12-725F) supplemented with 1% glutamine (Invitrogen, 25030-024), 1% non-essential amino acid (NEAA), penicillin 50 U/ml en streptomycin 50 μg/ml in the presence of test compound at different test concentrations. The cell/compound mixture was incubated overnight at 37° C., 5% CO2. The next day the media were assayed by two sandwich immuno-assays, for Aβ42 and Aβtotal.
(§3) Aβtotal and Aβ42 concentrations were quantified in the cell supernatant using the Aphalisa technology (Perkin Elmer). Alphalisa is a sandwich assay using biotinylated antibody attached to streptavidin coated donorbeads and antibody conjugated to acceptor beads. In the presence of antigen, the beads come into close proximity. The excitation of the donor beads provokes the release of singlet oxygen molecules that trigger a cascade of energy transfer in the acceptor beads, resulting in light emission. To quantify the amount of Aβ42 in the cell supernatant, monoclonal antibody specific to the C-terminus of Aβ42 (JRF/cAβ42/26) was coupled to the receptor beads and biotinylated antibody specific to the N-terminus of Aβ (JRF/AβN/25) was used to react with the donor beads. To quantify the amount of Aβtotal in the cell supernatant, monoclonal antibody specific to the N-terminus of Aβ (JRF/AβN/25) was coupled to the receptor beads and biotinylated antibody specific to the mid region of Aβ (biotinylated 4G8) was used to react with the donor beads.
(§4) To obtain the values reported in Table 7c, the data were calculated as percentage of the maximum amount of amyloid Beta 42 measured in the absence of the test compound. The sigmoidal dose response curves were analyzed using non-linear regression analysis with percentage of the control plotted against the log concentration of the compound. A 4-parameter equation was used to determine the IC50.

For test [4], the system named is Aβtotal. Kind of test: Method 2: Aβtotal Alphalisa in supernatant of SKNBE2 cells carrying APP 695-wild type (Table 7c). As to conditions: Method 2, Alphalisa, overnight incubation. The protocol:
as §1, §2, §3, §4

[5] abbreviates: Table 7a, SKNBE2 cells, compounds 18 h, XLfit 4-parameter fit of percent inhibition, top/bottom fixed to 100/0, hill slope 1.
The mark [6] stands for this setting: Table 7b, averaged IC50, non-linear regression of percentage of control vs log concentration, 4-parameter equation.

Usually pIC50 stands for the negative decadic logarithm of the IC50, by convention in mol/L. With `Cc1ncoc1-c1ccc(Nc2cccc3c2nc(-c2ccc(F)cc2)n3C)cn1` [Compound 35], the pIC50 in test [1] (setting [5]) was 7.05; in test [1] (setting [6]), 7.05; in test [2] (setting [5]) it was less than 5.52; in test [3], 6.67; in test [4], less than 5.00.
For `Cc1ncc(-c2ccc(Nc3cccn4c(C)c(-c5ccccc5Cl)nc34)cc2)o1` [Compound 49], the pIC50 was 7.68 in test [1] (setting [5]); 7.70 in test [1] (setting [6]); less than 5.52 in test [2] (setting [5]); less than 5.52 in test [2] (setting [6]); 7.40 in test [3]; less than 5.00 in test [4].
As to `Cc1ncc(-c2ccc(Nc3cccn4cc(-c5cc(C(F)(F)F)ccc5C)nc34)cc2)o1` [Compound 50], the pIC50 is 7.42 in test [1] (setting [5]); 7.70 in test [1] (setting [6]); less than 5.52 in test [2] (setting [5]); less than 5.52 in test [2] (setting [6]); 7.14 in test [3]; less than 5.00 in test [4].
On to `Cc1ncoc1-c1ccc(Nc2cccc3c2nc(-c2ccc(F)cc2)n3C(C)C)cc1F` [Compound 65], for which the pIC50 is 7.08 in test [1] (setting [6]), less than 5.52 in test [2] (setting [6]), 6.93 in test [3] and less than 5.00 in test [4].
On to `Cc1nc(C)c(-c2ccc(Nc3cc(F)cc4c3nc(-c3ccccc3Cl)n4C)cn2)o1` [Compound 79], for which the pIC50 in test [1] (setting [6]) was 7.55; in test [2] (setting [6]), less than 5.52; in test [3], 7.12; in test [4] it was less than 5.00.
The corresponding values for `Cc1nc(C)c(-c2ccc(Nc3cccc4c3nc(-c3ccc(F)cc3)n4C(C)C)cn2)o1` [Compound 82] are 7.43, less than 5.52, 7.31 and less than 5.00.
As to `Cc1ncc(-c2ccc(Nc3nccc4c3nc(-c3ccccc3Cl)n4C)cn2)o1` [Compound 85], the pIC50 in test [1] (setting [6]) is 7.18; in test [2] (setting [6]), less than 5.52; in test [3] it was 6.44; in test [4] it was less than 5.00.
Taken in the same sequence, the figures for `Cc1ncc(-c2ccc(Nc3cc(C#N)cc4c3nc(-c3ccc(F)cc3)n4C)cn2)o1` [Compound 86] were 7.72, less than 5.52, 7.28 and less than 5.00.
The corresponding values for `Cc1ncc(-c2ccc(Nc3cccc4c3nc(C3(c5ccc(Cl)cc5)CC3)n4C)cn2)o1` [Compound 88] are 7.18, less than 5.00, 7.24 and 5.05.
The corresponding values for `Cc1ncc(-c2ccc(Nc3cc(F)cc4c3nc(-c3ccccc3Cl)n4C)cn2)o1` [Compound 107] are 7.74, less than 5.52, 7.60 and less than 5.00.
For the compound `Cc1cc2c(nc(-c3cccc(Cl)c3)n2C)c(Nc2ccc(-c3ocnc3C)nc2)n1` [Compound 111], the pIC50 in test [1] (setting [6]) is 6.47; in test [2] (setting [6]), less than 5.00; in test [3], 6.69; in test [4], less than 5.00.
Turning to `COc1cc(Nc2cc(F)cn3cc(C4CCOCC4)nc23)ccc1-c1ocnc1C` [Compound 163], the pIC50 in test [1] (setting [6]) was 6.61; in test [2] (setting [6]) it was less than 5.00; in test [3], 6.80; in test [4], less than 5.00.
`Cc1ncoc1-c1ccc(Nc2cccn3cc(CC4CCOCC4)nc23)cn1` [Compound 164]: the pIC50 in test [1] (setting [6]) is 5.85; in test [2] (setting [6]), 5.03; in test [3] it was 5.88; in test [4], 5.17.
Taken in the same sequence, the figures for `Cc1ncc(-c2ccc(Nc3cccn4c(C)c(-c5ccccc5C(F)(F)F)nc34)cn2)o1` [Compound 167] were 7.68, less than 5.52, 7.74 and less than 5.00.
Take `Cc1ncc(-c2ccc(Nc3cc(F)cn4cc(-c5ccc(F)cc5C)nc34)cn2)o1` [Compound 171]: the pIC50 was 7.70 in test [1] (setting [6]), less than 5.52 in test [2] (setting [6]), 7.42 in test [3] and less than 5.00 in test [4].
The corresponding values for `Cc1cn2cccc(Nc3ccc(-c4cnc(C)o4)nc3)c2n1` [Compound 172] are 5.68, less than 5.52, 6.18 and less than 5.00.
Taken in the same sequence, the figures for `Cc1ncc(-c2ccc(Nc3cccn4c(C)c(-c5ccccc5Cl)nc34)cn2)o1` [Compound 173] were 8.05, less than 5.52, 8.15 and less than 5.00.
The corresponding values for `COCCc1c(-c2ccc(F)cc2)nc2c(Nc3ccc(-c4cnc(C)o4)c(OC)c3)cccn12` [Compound 174] are 8.00, less than 5.52, 7.66 and less than 5.00.
`COc1cc(Nc2cc(C(C)C)nc3c2nc(-c2ccc(F)cc2)n3C)ccc1-c1cnc(C)o1` [Compound 190]: the pIC50 was 8.30 in test [1] (setting [6]), less than 5.52 in test [2] (setting [6]), 8.00 in test [3] and less than 5.00 in test [4].
The corresponding values for `COc1cc(Nc2cc(C#N)cn3cc(CC(C)C)nc23)ccc1-c1ocnc1C` [Compound 202] are 6.87, less than 5.52, 6.61 and 5.07.
